Experiments:
Format in all cases: cell-based
dopamine transporter = molecular target: T1, dopamine transporter (Homo sapiens, UniProt Q01959); experiment: Dopamine reuptake inhibition in transporter-transfected HEK-293 cells ([3H]-DA); conditions: for Triple reuptake inhibition (Ratio %) DAT: compound 1 μM, 20-30 nM [3H]-DA, relative to control without compound (100%), lower = more inhibition; for IC50: concentration at which Ratio % is 50%, 6 concentrations 1 nM to 1 μM, read-out: Triple reuptake inhibition (IC50, μM) DAT
T1 construct: expressed in transfected cells; host or cells: HEK-293
Description: (§1) To evaluate the reuptake inhibitory effect on dopamine, the dopamine transporter cDNA was transfected using the HEK-293 cell line, and then sub-seeded in a 24 well plate the next day. After removing the medium, each compound of the Examples or Comparative Examples diluted to 1 μM in uptake buffer was added to a concentration of 200 μl/well and cultured at 37° C. for 15 minutes. 100 μl of uptake buffer containing 20-30 nM [3H]-DA was added and cultured at 37° C. for 5 minutes. The reaction solution was quickly removed and washed three times with 1 ml ice-cold uptake buffer. After dissolving the resultant in 1% SDS (0.5 ml), the degree of binding of radioisotope-labeled dopamine to the transporter was measured.
(§2) In addition, when evaluating the reuptake inhibitory effect on dopamine, norepinephrine, and serotonin, the same method was performed without treating each compound of the Examples or Comparative Examples as a control, the degree of binding of radioisotope-labeled dopamine, norepinephrine, and serotonin to the transporter was measured, and by using this as a standard (100%), the triple reuptake inhibitory effect was evaluated as a relative ratio (Ratio %). That is, in the control group, the binding of dopamine, norepinephrine, and serotonin to transporters is not inhibited, but when each compound of the Examples is treated and thus the binding is inhibited, the Patio % value decreases.
(§3) Meanwhile, the Patio % values were compared, and in the case of the compounds of Examples 6, 9, 10, 19, 20, 22, 24, 28, 30, 31, 32, 33, 35, 41, 42, 48, 49, 51, 55, 56, 59, 61, 63, 64, 65, 66, 74 and 76 with excellent reuptake inhibitory effects on dopamine, norepinephrine and serotonin, the concentration at which the Ratio % is 50% was calculated using a total of 6 concentrations (1 nM, 5 nM, 10 nM, 50 nM, 100 nM, and 1 μM) and expressed as IC50. In addition, in the case of the compound of Comparative Example 1, IC50 was obtained by the same method as the Example Compounds.

serotonin transporter = molecular target: T2, serotonin transporter (Homo sapiens, UniProt P31645); experiment: Serotonin reuptake inhibition in transporter-transfected HEK-293 cells ([3H]-5-HT); conditions: for Triple reuptake inhibition (Ratio %) SERT: compound 1 μM, [3H]-5-HT, relative to control without compound (100%), lower = more inhibition; for IC50: concentration at which Ratio % is 50%, 6 concentrations 1 nM to 1 μM, read-out: Triple reuptake inhibition (IC50, μM) SERT
T2 construct: expressed in transfected cells; host or cells: HEK-293
Description: as §1
(§4) For norepinephrine (NE) and serotonin (5-HT), the degree of binding of radioisotope-labeled norepinephrine or serotonin to the transporter was measured in the same manner as above, except that cells transfected with NE or 5-HT transporter cDNA were used and [3H]-NE or [3H]-5-HT was used as a substrate.
as §2
In addition, in the case of the compound of Comparative Example 1, IC50 was obtained by the same method as the Example Compounds.

[1] = molecular target: T3, norepinephrine transporter (Homo sapiens, UniProt P23975); experiment: Norepinephrine reuptake inhibition in transporter-transfected HEK-293 cells ([3H]-NE); conditions: for Triple reuptake inhibition (Ratio %) NET: compound 1 μM, [3H]-NE, relative to control without compound (100%), lower = more inhibition; for IC50: concentration at which Ratio % is 50%, 6 concentrations 1 nM to 1 μM, read-out: Triple reuptake inhibition (IC50, μM) NET
T3 construct: expressed in transfected cells; host or cells: HEK-293
Description: as §1, §4, §2, §3

T1 sequence (Q01959 whole entry): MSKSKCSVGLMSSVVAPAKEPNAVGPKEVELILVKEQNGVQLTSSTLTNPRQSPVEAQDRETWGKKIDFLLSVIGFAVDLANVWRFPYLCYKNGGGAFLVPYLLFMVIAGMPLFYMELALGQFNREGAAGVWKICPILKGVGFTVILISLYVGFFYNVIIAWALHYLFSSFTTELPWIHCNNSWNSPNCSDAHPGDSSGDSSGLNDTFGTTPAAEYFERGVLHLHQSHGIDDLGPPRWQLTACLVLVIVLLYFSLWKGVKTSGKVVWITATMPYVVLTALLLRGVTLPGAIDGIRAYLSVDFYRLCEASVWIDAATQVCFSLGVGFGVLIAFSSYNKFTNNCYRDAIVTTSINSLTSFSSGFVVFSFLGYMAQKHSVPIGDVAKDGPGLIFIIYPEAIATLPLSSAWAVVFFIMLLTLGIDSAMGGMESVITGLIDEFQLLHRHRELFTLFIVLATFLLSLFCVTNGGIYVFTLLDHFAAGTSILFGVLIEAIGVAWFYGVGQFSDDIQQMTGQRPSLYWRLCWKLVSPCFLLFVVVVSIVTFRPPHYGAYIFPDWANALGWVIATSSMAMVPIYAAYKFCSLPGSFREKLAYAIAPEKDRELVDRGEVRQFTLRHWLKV
T2 sequence (P31645 whole entry): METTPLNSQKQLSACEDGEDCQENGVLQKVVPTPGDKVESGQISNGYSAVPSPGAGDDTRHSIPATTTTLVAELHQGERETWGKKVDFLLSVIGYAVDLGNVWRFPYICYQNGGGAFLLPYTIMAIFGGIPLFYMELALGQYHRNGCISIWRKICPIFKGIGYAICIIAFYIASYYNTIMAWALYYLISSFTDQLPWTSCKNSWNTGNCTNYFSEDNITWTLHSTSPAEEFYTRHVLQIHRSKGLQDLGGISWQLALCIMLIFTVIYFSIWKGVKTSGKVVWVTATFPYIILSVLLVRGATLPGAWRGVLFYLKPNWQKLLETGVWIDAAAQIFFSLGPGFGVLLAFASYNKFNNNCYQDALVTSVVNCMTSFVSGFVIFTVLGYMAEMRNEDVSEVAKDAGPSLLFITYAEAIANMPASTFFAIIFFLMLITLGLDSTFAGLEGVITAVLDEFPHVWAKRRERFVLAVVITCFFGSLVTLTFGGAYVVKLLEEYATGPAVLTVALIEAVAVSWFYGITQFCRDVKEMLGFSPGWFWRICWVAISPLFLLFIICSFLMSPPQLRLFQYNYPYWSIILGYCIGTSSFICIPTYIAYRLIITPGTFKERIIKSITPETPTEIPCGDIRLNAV
T3 sequence (P23975 whole entry, species assumed): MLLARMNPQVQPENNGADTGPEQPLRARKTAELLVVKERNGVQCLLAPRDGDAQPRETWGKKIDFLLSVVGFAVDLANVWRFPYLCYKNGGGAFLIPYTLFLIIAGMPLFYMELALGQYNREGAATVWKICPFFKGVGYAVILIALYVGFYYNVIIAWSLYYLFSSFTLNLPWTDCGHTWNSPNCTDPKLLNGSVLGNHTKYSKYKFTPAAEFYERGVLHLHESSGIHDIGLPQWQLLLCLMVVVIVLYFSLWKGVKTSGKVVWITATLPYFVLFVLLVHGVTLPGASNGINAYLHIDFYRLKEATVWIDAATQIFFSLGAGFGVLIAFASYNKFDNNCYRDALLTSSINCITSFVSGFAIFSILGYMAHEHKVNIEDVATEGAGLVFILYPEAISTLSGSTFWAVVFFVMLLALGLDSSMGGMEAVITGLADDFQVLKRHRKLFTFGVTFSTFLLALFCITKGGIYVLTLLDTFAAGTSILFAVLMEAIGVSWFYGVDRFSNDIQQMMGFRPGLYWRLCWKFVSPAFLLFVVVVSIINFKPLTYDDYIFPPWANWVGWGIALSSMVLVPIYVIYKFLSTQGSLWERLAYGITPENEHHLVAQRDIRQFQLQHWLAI

Row | Triple reuptake inhibition (Ratio %) DAT (dopamine transporter) | IC50 (dopamine transporter) | Triple reuptake inhibition (Ratio %) SERT (serotonin transporter) | IC50 (serotonin transporter) | Triple reuptake inhibition (Ratio %) NET [1] | IC50 [1] | Structure (SMILES)
1 | 79.43% | – | 94.51% | – | 144.33% | – | O=C(N[C@@H]1CC[C@@H](c2ccc(Cl)c(Cl)c2)c2ccccc21)c1cc2ccccc2[nH]1 [Example 62, N-((1R,4S)-4-(3,4-dichlorophenyl)-1,2,3,4-tetrahydronaphthalen-1-yl)-1H-indol-2-carboxamide]
2 | 92.83% | – | 113.80% | – | 86.02% | – | O=C(NCCN1CCC(Cc2ccccc2)CC1)C1CC1 [Example 69, N-(2-(4-benzylpiperidin-1-yl)ethyl)cyclopropanecarboxamide]
3 | 22.84% | 0.362 µM | 47.72% | 0.237 µM | 57.21% | 0.543 µM | O=C(NCCN1CCC(Cc2ccccc2)CC1)c1nc2cc(O)ccc2[nH]1 [Example 64, N-(2-(4-benzylpiperidin-1-yl)ethyl)-5-hydroxy-1H-benzo[d]imidazol-2-carboxamide]
4 | 117.41% | – | 67.98% | – | 105.84% | – | O=C(NCCN1CCC(Cc2ccccc2)CC1)c1ccccn1 [Example 71, N-(2-(4-benzylpiperidin-1-yl)ethyl)picolinamide]

Further lines, the compound ahead of its results:

Row | Structure (SMILES) | Triple reuptake inhibition (Ratio %) DAT (dopamine transporter) | IC50 (dopamine transporter) | Triple reuptake inhibition (Ratio %) SERT (serotonin transporter) | IC50 (serotonin transporter) | Triple reuptake inhibition (Ratio %) NET [1] | IC50 [1]
5 | O=C(NCCN1CCC(Cc2ccccc2)CC1)c1nc2ccccc2s1 [Example 55, N-(2-(4-benzylpiperidin-1-yl)ethyl)benzo[d]thiazol-2-carboxamide] | 39.32% | 2.64 µM | 53.01% | 3.01 µM | 57.47% | 2.48 µM
6 | O=C(NCCN1CCC(Cc2ccccc2)CC1)c1cc2cc(F)ccc2[nH]1 [Example 49] | 24.67% | 0.138 µM | 62.50% | 1.47 µM | 26.73% | 0.561 µM
7 | O=C(NCCN1CCC(Cc2ccccc2)CC1)c1cc2cc(Cl)ccc2[nH]1 [Example 31, N-(2-(4-benzylpiperidin-1-yl)ethyl)-5-chloro-1H-indol-2-carboxamide] | 31.52% | 1.73 µM | 58.09% | – | 72.60% | 4.35 µM
8 | O=C(NCCN1CCC(Cc2ccccc2)CC1)[C@H]1Cc2ccccc2N1 [Example 58, (R)—N-(2-(4-benzylpiperidin-1-yl)ethyl)indolin-2-carboxamide] | 66.26% | – | 105.84% | – | 82.39% | –
9 | O=C(NCCN1CCC(Cc2ccccc2)CC1)c1cc2cccnc2[nH]1 [Example 56, N-(2-(4-benzylpiperidin-1-yl)ethyl)-1H-pyrrolol[2,3-b]pyridin-2-carboxamide] | 37.06% | 1.48 µM | 76.79% | – | 81.84% | –
10 | O=C(NCCN1CCN(Cc2ccccc2)CC1)c1ccc(Cl)c(Cl)c1 [Example 15, N-(2-(4-benzylpiperazin-1-yl)ethyl)-3,4-dichlorobenzamide] | 85.21% | – | 114.75% | – | 72.94% | –
11 | Cc1c(C(=O)NCCN2CCC(Cc3ccccc3)CC2)[nH]c2ccccc12 [Example 20, N-(2-(4-benzylpiperidin-1-yl)ethyl)-3-methyl-1H-indol-2-carboxamide] | 43.53% | 1.37 µM | 83.11% | – | 85.70% | –
12 | O=C(NCCN1CCC(C(O)c2ccccc2)CC1)c1cc2ccccc2[nH]1 (stereo not shown) [Example 36, N-(2-(4-(hydroxy(phenyl)methyl)piperidin-1-yl)ethyl)-1H-indol-2-carboxamide] | 84.74% | – | 111.92% | – | 90.99% | –

— patent publication US20240018119A1, “CARBOXAMIDE DERIVATIVE AND PHARMACEUTICAL COMPOSITION COMPRISING SAME AS ACTIVE INGREDIENT FOR PREVENTING OR TREATING MENTAL ILLNESS” (DAEGU-GYEONGBUK MEDICAL INNOVATION FOUNDATION, priority 2020, published 2024)
